Data published in patent US4554353A, “2,5-Pyrrolidinedione derivatives useful as antiarrhythmic agents” (G. D. Searle & Co., priority 1984, dated 1985).

How the values were obtained:
[1] = molecular target: Muscarinic Receptor; experiment: Muscarinic Receptor Binding Assay (3H-QNB displacement, rat brain homogenate); conditions: inhibition of specific 3H-QNB binding by 50%, 0.15 nM 3H-QNB, pH 7.4, 25° C., 1 hour
[2] = tested on: Ventricular arrhythmia; experiment: Harris Dog Efficacy (ventricular arrhythmia induced by 2-stage coronary artery ligation in unanesthetized dogs); format: in vivo; conditions: for minimal effective dose: Canis lupus familiaris, 10 min, intravenous, unanesthetized dogs, at least 25% reduction in ectopic beats for at least 10 minutes in half or more of dogs; for activity in the dog ventricular arrhythmia test: active = at least 25% reduction in ectopic beats for at least 10 minutes in half or more of dogs
Protocol: Ventricular arrhythmia is induced by a 2-stage ligation of the anterior descending branch of the left coronary artery in each of two or more unanesthetized dogs. The test compound is administered intravenously at 5 mpk doses to a maximum dose of 20 mpk.

Structure (SMILES) | IC50 [1] [nM] | minimal effective dose [2] [mg/kg] | activity in the dog ventricular arrhythmia test [2]
CC(C)N(CCC1(c2ccccc2)CC(=O)NC1=O)C(C)C (stereo not shown) [Example 2, 3-[2-[bis(1-methylethyl)amino]ethyl]-3-phenyl-2,5-pyrrolidinedione] | 140 | 10 | 
CC(C)N(CCC1(c2ccccc2Cl)CC(=O)NC1=O)C(C)C (stereo not shown) [Example 4, 3-[2-[bis(1-methylethyl)-amino]ethyl]-3-(2-chlorophenyl)-2,5-pyrrolidinedione] | 300 | 2.8 | 
CC1CCCC(C)N1CCC1(c2ccccc2Cl)CC(=O)NC1=O (stereo not shown) [Example 6, 3-(2-chlorophenyl)-3-[2-(2,6-dimethyl-1-piperidinyl)ethyl]-2,5-pyrrolidinedione] | 470 | 1.3 | 
CCCN(CCC)CCCC1(c2ccccc2Cl)CC(=O)NC1=O (stereo not shown) [Example 14] | 3600 | 1 | 
CCN(CC)CCC1(c2ccccc2)CC(=O)NC1=O (stereo not shown) [Formula II (Prior Art), reference compound] | 20 | 2 | 
CC(C)N(CCC(C(N)=O)(c1ccccc1)c1ccccn1)C(C)C (stereo not shown) [Norpace, reference compound] |  |  | active
CCN(CC)CCNC(=O)c1ccc(N)cc1 [procainamide, reference compound] |  |  | active
C=C[C@H]1C[N@@]2CC[C@H]1C[C@@H]2[C@@H](O)c1ccnc2ccc(OC)cc12 [quinidine, reference compound] |  |  | active
